According to ChEMBL document CHEMBL2007661, “Compounds: GSK PKIS; Assays: UNC Frye lab” (2012):
Values joined by “and” are separate entries in the source; they are usually repeats but may differ in a detail not shown here. Identical values can stand only once.

How the values were obtained:
[1] = target: T1, Inhibitor of nuclear factor kappa-B kinase subunit beta (Homo sapiens) (UniProt O14920); details: at 1 µM
T1 sequence (whole entry): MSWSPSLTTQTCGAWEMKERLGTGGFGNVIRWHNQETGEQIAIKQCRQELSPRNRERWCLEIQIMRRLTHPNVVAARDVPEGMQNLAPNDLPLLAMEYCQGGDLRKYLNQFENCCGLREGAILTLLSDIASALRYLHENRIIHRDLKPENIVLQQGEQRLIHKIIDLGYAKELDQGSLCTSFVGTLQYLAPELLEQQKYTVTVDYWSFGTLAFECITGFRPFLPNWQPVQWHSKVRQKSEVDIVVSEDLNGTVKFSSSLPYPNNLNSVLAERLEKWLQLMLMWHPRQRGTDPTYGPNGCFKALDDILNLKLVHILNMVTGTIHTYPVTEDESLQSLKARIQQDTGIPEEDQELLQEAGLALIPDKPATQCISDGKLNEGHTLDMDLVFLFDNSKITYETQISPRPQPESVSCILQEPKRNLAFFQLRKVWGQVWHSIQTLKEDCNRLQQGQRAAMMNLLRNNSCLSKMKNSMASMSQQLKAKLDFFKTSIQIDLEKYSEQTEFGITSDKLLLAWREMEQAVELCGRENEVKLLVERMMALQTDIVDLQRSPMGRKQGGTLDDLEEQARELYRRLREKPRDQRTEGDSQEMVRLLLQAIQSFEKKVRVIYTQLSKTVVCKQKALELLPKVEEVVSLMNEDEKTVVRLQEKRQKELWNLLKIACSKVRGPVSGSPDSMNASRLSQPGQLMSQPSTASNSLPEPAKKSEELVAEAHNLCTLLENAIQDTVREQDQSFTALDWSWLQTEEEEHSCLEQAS

[2] = target: T2, Tyrosine-protein kinase Mer (Homo sapiens) (UniProt Q12866); details: at 10 µM
T2 sequence (whole entry): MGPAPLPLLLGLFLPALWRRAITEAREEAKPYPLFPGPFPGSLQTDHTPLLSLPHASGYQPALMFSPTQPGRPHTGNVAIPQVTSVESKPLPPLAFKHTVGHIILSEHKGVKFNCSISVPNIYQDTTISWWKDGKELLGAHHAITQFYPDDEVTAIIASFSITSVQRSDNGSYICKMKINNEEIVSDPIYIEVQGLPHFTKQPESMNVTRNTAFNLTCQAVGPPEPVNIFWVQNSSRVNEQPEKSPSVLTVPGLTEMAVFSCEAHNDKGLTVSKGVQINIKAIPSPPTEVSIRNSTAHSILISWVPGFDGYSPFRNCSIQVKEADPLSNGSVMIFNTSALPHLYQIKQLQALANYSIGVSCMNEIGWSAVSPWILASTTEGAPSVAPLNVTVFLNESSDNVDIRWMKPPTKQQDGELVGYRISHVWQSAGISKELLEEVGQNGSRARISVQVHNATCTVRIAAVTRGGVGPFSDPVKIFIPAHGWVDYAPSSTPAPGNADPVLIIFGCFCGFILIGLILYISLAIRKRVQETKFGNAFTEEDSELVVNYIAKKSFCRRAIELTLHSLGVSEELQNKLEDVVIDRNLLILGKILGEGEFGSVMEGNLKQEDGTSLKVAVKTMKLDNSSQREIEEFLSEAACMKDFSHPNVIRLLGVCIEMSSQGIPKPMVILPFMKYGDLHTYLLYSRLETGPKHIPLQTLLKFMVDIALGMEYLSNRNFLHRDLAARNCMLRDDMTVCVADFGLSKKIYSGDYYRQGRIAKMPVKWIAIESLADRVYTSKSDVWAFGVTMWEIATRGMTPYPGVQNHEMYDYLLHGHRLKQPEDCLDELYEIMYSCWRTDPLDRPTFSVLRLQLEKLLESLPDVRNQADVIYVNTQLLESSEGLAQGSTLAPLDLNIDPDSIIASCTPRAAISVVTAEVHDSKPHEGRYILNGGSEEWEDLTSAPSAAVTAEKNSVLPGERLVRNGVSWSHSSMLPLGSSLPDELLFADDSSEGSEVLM

Row | Structure (SMILES) | inhibition [1] | inhibition [2] [%]
1 | CN(C)CCOc1ccc(-c2cc(-c3ccc4c(c3)CCC4=NO)c(-c3ccncc3)o2)cc1 | -1% and -3% | 1
2 | COc1cc2ncn(-c3cc(OCc4cccs4)c(C(N)=O)s3)c2cc1OC | -5% and -6% | 4
3 | COc1cc(N2CCN(C(C)C)CC2)ccc1Nc1nc(Nc2cccc(F)c2C(=O)O)c2cc[nH]c2n1 | -4% and -3% | -2
4 | CC1=C(C(=O)Nc2cc(Cl)c3[nH]ncc3c2)C(c2ccc(C(F)(F)F)cc2)CC(=O)N1 (configuration not stated) | -7% and 0% | 18
5 | O=C1Nc2ccc(I)cc2C1=Cc1cc(Br)c(O)c(Br)c1 | 0% | -2
6 | CN(C)c1cc2c(Nc3ccc4nc(Cc5ccccc5)[nH]c4c3)ncnc2cn1 | -2% and -3% | 2
7 | O=C1Nc2ccccc2/C1=C1\CCc2cc(O)ccc21 | -3% and -4% | 7
8 | CCNC(=O)O[C@H]1CN[C@H](C#Cc2cc3ncnc(Nc4ccc(OCc5cccc(F)c5)c(Cl)c4)c3s2)C1 | -5% and -3% | 2
9 | COc1ccc(-c2cc3c(N)ncnc3o2)cc1 | -5% and 1% | 5
10 | CNC(=O)Oc1cc(C)c(/C=C/c2cncc(C(=O)NC)c2)c(C)c1 | 1% and -3% | 48
11 | CN(C)CCOc1ccc(-c2nc(-c3ccncc3)c(-c3ccc4c(c3)CC/C4=N\O)[nH]2)cc1 | 0% and -1% | 3

Continued, values first:

Row | inhibition [1] | inhibition [2] [%] | Structure (SMILES)
12 | -2% and -3% | -6 | CS(=O)(=O)CCNCc1nc(-c2ccc3ncnc(Nc4ccc(F)c(Cl)c4)c3c2)cs1
13 | -4% and -5% | 13 | COc1ccc(-c2nn3ncccc3c2-c2ccnc(Nc3ccc(Cl)c(C(F)(F)F)c3)n2)cc1
14 | -5% and -6% | 49 | COc1cccc(-n2ncc3c(N/N=C/c4ccc(C(=O)NCCN(C)C)cc4)ncnc32)c1
15 | -9% and -7% | 5 | CCN(CC)Cc1ccc(Nc2nccc(-c3cnn4ncccc34)n2)cc1
16 | -3% and -2% | 93 | Cc1ccc(Nc2ccnc(Nc3cccc(C(N)=O)c3)n2)cc1O
17 | -2% and -1% | -4 | NC(=O)c1ccc2c(-c3ccnc(NCCCO)n3)c(-c3ccc(F)cc3)nn2c1
18 | -3% and -4% | -4 | CCc1nn2ncccc2c1-c1ccnc(NC2CC2)n1
19 | -4% and -10% | -1 | c1ccc(-c2n[nH]cc2-c2ccnc(-c3ccc(OCCN4CCOCC4)cc3)c2)nc1
20 | -1% and 1% | 5 | CCCN1CCCC(c2ccc(Nc3nc(Nc4cc(F)ccc4C(N)=O)c4cc[nH]c4n3)c(OC)c2)C1 (configuration not stated)
21 | -3% | 67 | Fc1ccc(-c2ncn(C3CCNCC3)c2-c2ccnc(Oc3ccc(F)c(F)c3)n2)cc1
